Reference: paper PMC3715890, “A Cyclic Peptide Inhibitor of HIF-1 Heterodimerization That Inhibits Hypoxia Signaling in Cancer Cells” (Journal of the American Chemical Society, 2013)
“Also recorded” adds a separate entry of the source.

Experiments:
[1] = test system: HIF-1 (HIF-dependent luciferase reporter, U2OS-HRE-luc cells); assay: HIF-1-dependent luciferase reporter assay, U2OS-HRE-luc; format: cell-based, human; conditions: U2OS-HRE-luc
Procedure: The ability of P1–P3 to disrupt HIF-1 function in cells was assessed using a HIF-1-dependent luciferase reporter assay.[15],[21] The assay uses human osteosarcoma U2OS cells, stably transfected with a HIF-dependent luciferase reporter construct (U2OS-HRE-luc), where activation of HIF results in an increase in luciferase expression.[15]
Endogenous HIF-1 luciferase reporter assays were conducted as previously reported in U2OS-HRE-luc[15] and MCF-7 cells.[46] For plasmid-expressed HIF-α luciferase reporter assays, MCF-7 and U2OS cells were transiently transfected with plasmids expressing HIF-1α, HIF-2α, or a blank control (pcDNA3.1-HIF-1α, pcDNA3.1-HIF-2α, or pcDNA3.1), a renilla-encoding control (phRL-TK), and a HIF-dependent firefly luciferase reporter construct (pGL2-TK-HRE), using Transfast (Promega) according to the manufacturer’s instructions. After 24 h, cells were recovered and plated (4000 cells/well) in 96-well plates (Perkin-Elmer) and incubated for 5 h before either hypoxic or aerobic incubation in presence or absence of cyclic peptide inhibitors. Firefly and renilla activities were determined using Dual-Glo Reagent (Promega) according to the manufacturer’s instructions. The luciferase signal was normalized using the corresponding renilla values.
(§1) Cells were treated with the stated concentrations of inhibitor (P1, P2, or P3) and incubated in normoxia for 4 h, followed by incubation in a hypoxic environment. All manipulation of cell pellets (e.g., lysis, mRNA, and protein extraction) was conducted in a hypoxic environment.

[2] = biological target: T1, PAS-B domain of HIF-1α (Homo sapiens, UniProt Q16665); assay: Isothermal titration calorimetry, PAS-B; format: binding; conditions: ITC, 25 °C, pH 7.5, 10 µM PAS-B
T1 construct: Per-ARNT-Sim-B (PAS-B, amino acids 235–350) domains; His (N); made in house; host or cells: E. coli BL21(DE3)

[3] = test system: VEGF protein in hypoxic U2OS cells; assay: VEGF protein ELISA, U2OS; format: cell-based, human; conditions: hypoxia, 100 μM
Procedure: Cells were treated with the stated concentrations of inhibitor (P1, P2, or P3) and incubated in normoxia for 4 h, followed by incubation in a hypoxic environment. All manipulation of cell pellets (e.g., lysis, mRNA, and protein extraction) was conducted in a hypoxic environment. […]
manufacturer’s instructions.
The loaded beads were washed and blocked with the provide buffers. […]
reagent (RPN2232, GE Healthcare).
Fluorescent binding assay
Scientific, catalogue no. […]
followed by washing with 3 × 200 µL ELISA buffer. 95 µL of EMSA buffer was added to […]
The fluorescence of each well at
Isothermal Titration Calorimetry […]
iTC200 system (GE Healthcare).
P2) was dissolved in the same buffer.
Control experiments for P1 or P2
Quantification of VGEF-A protein by ELISA […]
incubation in hypoxia for 16h. VEGF-A protein concentration was quantified by human

[4] = test system: tubule formation in hypoxic human umbilical vein endothelial cells (HUVEC); assay: HUVEC tubularization; format: cell-based; conditions: 250 μM
[5] = test system: CAIX mRNA in hypoxic MCF-7 cells; assay: CAIX mRNA qPCR, MCF-7; format: cell-based; conditions: MCF-7, hypoxia, 100 μM
Procedure: as §1
Total RNA was extracted from MCF-7 and U2OS cells using RNeasy Mini Kit (74104, QIAGEN) and quantified using a Nanodrop ND-1000 spectrophotometer. Complementary DNA was synthesized in a 20 μL reaction containing 1 μg of total RNA, using qScript cDNA SuperMix (95048-100, Quanta Biosciences) according to the manufacturer’s instructions. Quantitative real-time PCRs were performed using Universal Taqman PCR master mix (Applied Biosystems) >and the Taqman gene expression assay of interest (Applied Biosystems) on an ABI StepOnePlus Real-Time PCR system (Applied Biosystems). Expression assays used in this study were HIF-1α (00936376_m1), VEGF-A (Hs00173626_m1), CAIX (Hs00154208_m1), LOX (Hs00942480_m1), HIF2α (Hs01026149_m1), CITED2 (Hs01897804_s1), and 18S (Hs99999901_m1). All expression values were normalized using expression of 18S.

T1 sequence (Q16665 235-350): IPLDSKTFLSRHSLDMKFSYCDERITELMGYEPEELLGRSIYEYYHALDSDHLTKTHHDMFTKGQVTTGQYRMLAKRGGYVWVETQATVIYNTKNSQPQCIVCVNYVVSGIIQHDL

Tat-cyclo-CRLMVL (head to tail) [P2, cyclo-CRLMVL tagged with Tat peptide via a disulfide bond; used as negative control]
effect on luciferase reporter in hypoxia ([1]; hypoxia (1% O2)): did not show an effect | effect on luciferase reporter in normoxia (basal) ([1]; normoxia): did not show an effect | binding to PAS-B domain [2]: no binding; also recorded: did not bind | VEGF protein level [3]: has no effect in either cell line | HUVEC tubularization / tubule length [4]: has no effect | CAIX mRNA [5]: no effect
